The test system of series [1] is HCV replicon in Huh7 cells. Description: HCV replicon cell-based assay. The arrangement: species or system HCV strain 1B. The conditions noted are these: Hepatitis C virus, HCV replicon, Huh7 cells. Summed up:
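Genotype 1b subgenomic replicon Huh7 cells exposed to compound 4 days at 37° C in 4% FCS, 0.5% DMSO medium. EC50 from TaqMan RT-PCR of HCV RNA, normalized to total RNA by RiboGreen; CC50 from alamar Blue fluorescence after 4 h.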

The next series deals with T1, human leukocyte elastase (Homo sapiens, UniProt P08246).
T1 sequence (P08246 30-267): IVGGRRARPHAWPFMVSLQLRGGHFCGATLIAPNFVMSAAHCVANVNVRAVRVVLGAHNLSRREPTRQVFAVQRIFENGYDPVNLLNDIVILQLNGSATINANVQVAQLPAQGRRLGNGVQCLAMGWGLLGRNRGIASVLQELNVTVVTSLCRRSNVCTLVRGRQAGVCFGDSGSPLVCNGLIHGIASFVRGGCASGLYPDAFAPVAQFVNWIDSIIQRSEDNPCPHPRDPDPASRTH
Description: Specificity assay, human leukocyte elastase. In kind it is biochemical. The conditions noted are these: read-out: HLE. Here is the method:
(§1) The specificities of compounds of the present invention were determined against a variety of serine proteases: human leukocyte elastase, porcine pancreatic elastase and bovine pancreatic α-chymotrypsin and one cysteine protease: human liver cathepsin B. In all cases a 96-well plate format protocol using calorimetric […] (pNA) substrate specific for each enzyme was used as described previously (Patent WO 00/09543) with some modifications.
(§2) Each assay included a 1 h enzyme-inhibitor pre-incubation at RT followed by addition of substrate and hydrolysis to ˜30% conversion as measured on a Spectramax Pro microplate reader. Compound concentrations varied from 100 to 0.4 μM depending on their potency.
(§3) The final conditions and protocol for each assay was as reported previously (Patent WO 00/09543) with the inclusion of an additional assay: • 50 mM Tris-HCl pH 8, 0.5M Na2SO4, 50 mM NaCl, 0.1 mM EDTA, 3% DMSO, 0.01% Tween-20 with 133 μM succ-AAA-PNA and 20 nM Elastase
(§4) The percentage of inhibition was calculated using the formula: [1−((UVinh−UVblank)/(UVctl−UVblank))]×100

For series [2], the target named is T2, bovine pancreatic α-chymotrypsin (Bos taurus, UniProt P00766).
T2 construct: from tissue; host or cells: pancreas (from the enzyme's name only)
Nature of the series: Specificity assay, bovine pancreatic α-chymotrypsin. In kind it is biochemical. Here is the method:
as §1, §2, §3, §4

The nature of series [3]: In vivo rat PK studies (systemic and liver exposure). The arrangement: species or system male Sprague Dawley rats. The following applies: dosed orally or intravenously. Here is the method:
All animal experimentation was conducted in accordance with USDA guidelines under the Animal Welfare Act. To assess the systemic and liver exposure, representative compounds were orally (gastric intubation) or intravenously (bolus or infusion) administered to male Sprague Dawley rats bearing indwelling jugular vein cannulae. At pre-determined times after dosing, serial blood samples were taken from the implanted cannulae. Plasma was separated from EDTA-treated blood by centrifugation and stored at −20° C. until analysis. The liver was removed from rats after carbon dioxide asphyxiation, rinsed with saline and blotted dry. For analysis, a 2 g portion of the outer part of one lobe was minced and homogenized with 4 ml of 80% acetonitrile/HBSS buffer. After centrifugation, the supernatant was kept at −20° C. until analysis. Quantitation of represenatative compounds in plasma and liver homogenate samples was performed by a specific LC/MS/MS method optimized for each compound.

Among the data in US6872805B2 (Bristol-Myers Squibb Company, priority 2000, dated 2005) are EC50, IC50 and viral target exposure values, retold here.

Like-named read-outs stand apart in the source and are kept apart here. Some results are limits rather than exact numbers.

As usually defined, the EC50 is the concentration that produces a half-maximal response.

In the case of `C=CC1C[C@]1(NC(=O)[C@@H]1C[C@@H](Oc2cc(-c3ccccc3)nc3cc(OC)ccc23)CN1C(=O)C(NC(=O)OC(C)(C)C)C(C)(C)C)C(=O)NS(=O)(=O)c1ccc(NC(C)=O)cc1` (some centres unmarked) [Compound 58], the EC50 in series [1] (Huh-7, 96 h, 4 days, activity ranges, read-out: EC50) is below 0.5 µM; in series [1] (Huh-7, read-out: EC50 value in the replicon assay), 0.25 µM. Further, the IC50 on human leukocyte elastase was 35 µM; in series [2], above 100 µM. For the same molecule, in series [3], the viral target exposure result is reported as “viral target exposure was achieved”.
